From ChEMBL document CHEMBL5543112, “Discovery of CBPD-268 as an Exceptionally Potent and Orally Efficacious CBP/p300 PROTAC Degrader Capable of Achieving Tumor Regression” (J Med Chem, 2024)

Experiments:
[1] = molecular target: Voltage-gated inwardly rectifying potassium channel KCNH2 (Homo sapiens, UniProt Q12809); assay: Inhibition of hERG expressed in HEK293 cells; assay type: toxicity, cell-based
[2] = Toxicity in immune-competent Sprague-Dawley rat assessed as change in creatinine level at 1 to 10 mg/kg, po administered twice a week for 5 weeks; assay type: organism-based; details: in vivo, 840 h, dose 1-10 mg/kg
[3] = Drug concentration in SCID mouse plasma at 1 mg/kg, po measured at 1 hr by LC-MS/MS analysis; assay type: ADME, organism-based
[4] = Drug distribution in Sprague-Dawley rat heart at 10 mg/kg, po measured at 1 hr by LC-MS/MS analysis; assay type: ADME, organism-based; details: read-out: Ct
[5] = Drug distribution in SCID mouse tumor at 0.3 mg/kg, po measured at 6 hrs by LC-MS/MS analysis; assay type: ADME, organism-based, Neoplasm; details: read-out: Ct
VCaP = assay: Antiproliferative activity against human VCaP cells assessed as cell growth inhibition incubated for 4 days by celtiter-glo luminescent assay; details: 96 h
Cytochrome P450 1A2 = molecular target: T1, Cytochrome P450 1A2 (Homo sapiens, UniProt P05177); assay: Inhibition of CYP1A2 (unknown origin) preincubated with compound for 5 mins followed by NADPH addition and measured after 5 mins by LC-MS/MS analysis; assay type: ADME
T1 sequence (P05177 whole entry): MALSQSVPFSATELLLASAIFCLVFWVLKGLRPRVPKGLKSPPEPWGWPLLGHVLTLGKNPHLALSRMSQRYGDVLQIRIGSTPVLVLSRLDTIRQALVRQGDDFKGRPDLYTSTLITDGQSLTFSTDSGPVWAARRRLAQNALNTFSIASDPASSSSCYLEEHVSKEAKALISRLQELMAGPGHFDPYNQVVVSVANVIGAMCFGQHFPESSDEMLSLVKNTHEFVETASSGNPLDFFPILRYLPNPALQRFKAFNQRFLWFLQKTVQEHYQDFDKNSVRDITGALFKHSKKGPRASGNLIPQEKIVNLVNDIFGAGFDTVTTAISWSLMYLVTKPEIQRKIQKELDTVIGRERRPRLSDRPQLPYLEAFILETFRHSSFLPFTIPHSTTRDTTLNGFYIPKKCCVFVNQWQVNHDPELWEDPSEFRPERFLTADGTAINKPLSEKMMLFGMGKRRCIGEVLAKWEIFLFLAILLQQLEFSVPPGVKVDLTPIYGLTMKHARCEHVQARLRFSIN

[6] = Drug concentration in SCID mouse tumor at 1 mg/kg, po measured at 1 hr by LC-MS/MS analysis; assay type: ADME, organism-based, Neoplasm; details: read-out: Ct
Cytochrome P450 2B6 = molecular target: T2, Cytochrome P450 2B6 (Homo sapiens, UniProt P20813); assay: Inhibition of CYP2B6 (unknown origin) preincubated with compound for 5 mins followed by NADPH addition and measured after 10 mins by LC-MS/MS analysis; assay type: ADME
T2 sequence (P20813 whole entry): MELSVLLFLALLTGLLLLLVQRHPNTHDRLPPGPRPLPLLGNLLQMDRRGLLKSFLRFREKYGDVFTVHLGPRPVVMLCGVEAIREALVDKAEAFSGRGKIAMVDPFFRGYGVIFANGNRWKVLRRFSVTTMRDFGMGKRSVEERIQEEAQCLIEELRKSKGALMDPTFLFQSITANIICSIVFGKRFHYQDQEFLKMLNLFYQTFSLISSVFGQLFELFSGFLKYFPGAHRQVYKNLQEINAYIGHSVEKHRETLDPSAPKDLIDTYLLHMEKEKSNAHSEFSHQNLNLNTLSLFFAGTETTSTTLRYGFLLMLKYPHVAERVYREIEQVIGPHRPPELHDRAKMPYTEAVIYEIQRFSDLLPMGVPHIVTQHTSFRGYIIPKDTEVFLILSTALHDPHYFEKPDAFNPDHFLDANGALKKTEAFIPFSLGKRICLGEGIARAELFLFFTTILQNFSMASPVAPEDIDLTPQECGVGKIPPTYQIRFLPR

[7] = Metabolic stability in mouse plasma assessed as half life measured upto 120 mins by LC-MS/MS analysis; assay type: ADME, cell-free
[8] = Drug distribution in SCID mouse liver at 0.3 mg/kg, po measured at 24 hrs by LC-MS/MS analysis; assay type: ADME, organism-based; details: read-out: Ct
[9] = Metabolic stability in human liver microsome assessed as half life measured upto 60 mins in presence of NADPH by LC-MS/MS analysis; assay type: ADME; details: liver microsomes
[10] = Toxicity in immune-competent Sprague-Dawley rat assessed as change in basophil at 1 to 10 mg/kg, po administered twice a week for 5 weeks; assay type: organism-based; details: in vivo, 840 h, dose 1-10 mg/kg
[11] = Oral bioavailability in ICR mouse at 3 mg/kg measured upto 24 hrs by LC/MS-MS analysis; assay type: ADME, organism-based; details: in vivo
[12] = Drug distribution in SCID mouse spleen at 3 mg/kg, po measured at 1 hr by LC-MS/MS analysis; assay type: ADME, organism-based; details: read-out: Ct
[13] = Metabolic stability in rat plasma assessed as half life measured upto 120 mins by LC-MS/MS analysis; assay type: ADME, cell-free
[14] = Toxicity in immune-competent Sprague-Dawley rat assessed as decrease in glucose level at 10 mg/kg, po administered twice a week for 5 weeks; assay type: organism-based; details: in vivo, 840 h
[15] = Drug distribution in SCID mouse tumor at 1 mg/kg, po measured at 1 hr by LC-MS/MS analysis; assay type: ADME, organism-based, Neoplasm; details: read-out: Ct
CWR22R [16] = assay: Antitumor activity against human 22Rv1 cells xenografted in SCID mouse assessed as tumor growth inhibition at 3 mg/kg, po administered 3 times a week for 3 weeks; assay type: functional; details: 22Rv1, 504 h, read-out: TGI
CWR22R [17] = assay: Antitumor activity against human 22Rv1 cells xenografted in SCID mouse assessed as tumor growth inhibition at 1 mg/kg, po administered 3 times a week for 3 weeks; assay type: functional; details: 22Rv1, 504 h, read-out: TGI
[18] = Half life in ICR mouse at 3 mg/kg, po measured upto 24 hrs by LC/MS-MS analysis; assay type: ADME, organism-based; details: in vivo
[19] = Toxicity in male BALB/c mouse assessed as body weight loss at 30 mg/kg, po administered twice a week for 5 to 6 weeks; assay type: organism-based; details: in vivo, time 5-6 weeks
[20] = Half life in Sprague-Dawley rat at 3 mg/kg, po measured upto 24 hrs by LC/MS-MS analysis; assay type: ADME, organism-based; details: in vivo
[21] = Toxicity in immune-competent Sprague-Dawley rat assessed as change in alkaline phosphatase level at 1 to 10 mg/kg, po administered twice a week for 5 weeks; assay type: organism-based; details: in vivo, 840 h, dose 1-10 mg/kg
[22] = Drug distribution in SCID mouse spleen at 3 mg/kg, po measured at 6 hrs by LC-MS/MS analysis; assay type: ADME, organism-based; details: read-out: Ct
Cytochrome P450 2D6 = Cytochrome P450 2D6 (Homo sapiens, UniProt P10635); assay: Inhibition of CYP2D6 (unknown origin) preincubated with compound for 5 mins followed by NADPH addition and measured after 20 mins by LC-MS/MS analysis; assay type: ADME
Sequence of Cytochrome P450 2D6 (P10635 whole entry): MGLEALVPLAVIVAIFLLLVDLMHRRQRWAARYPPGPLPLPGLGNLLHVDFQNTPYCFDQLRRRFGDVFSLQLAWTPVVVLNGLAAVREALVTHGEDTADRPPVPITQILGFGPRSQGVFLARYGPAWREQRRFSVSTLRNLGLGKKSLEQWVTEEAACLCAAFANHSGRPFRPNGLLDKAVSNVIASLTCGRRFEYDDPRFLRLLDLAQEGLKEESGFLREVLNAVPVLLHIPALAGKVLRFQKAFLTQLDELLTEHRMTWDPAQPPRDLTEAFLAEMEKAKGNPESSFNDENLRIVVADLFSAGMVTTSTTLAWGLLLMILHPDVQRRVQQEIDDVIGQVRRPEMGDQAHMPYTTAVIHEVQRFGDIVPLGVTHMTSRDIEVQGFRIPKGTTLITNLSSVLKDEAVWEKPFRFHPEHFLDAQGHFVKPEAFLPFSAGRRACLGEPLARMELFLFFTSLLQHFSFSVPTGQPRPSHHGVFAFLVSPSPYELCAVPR

[23] = Drug distribution in Sprague-Dawley rat plasma at 10 mg/kg, po measured at 6 hrs by LC-MS/MS analysis; assay type: ADME, organism-based
[24] = Volume of distribution at steady state in ICR mouse at 1 mg/kg, iv measured upto 24 hrs by LC/MS-MS analysis; assay type: ADME, organism-based; details: in vivo

Sequence of Voltage-gated inwardly rectifying potassium channel KCNH2 (Q12809 whole entry): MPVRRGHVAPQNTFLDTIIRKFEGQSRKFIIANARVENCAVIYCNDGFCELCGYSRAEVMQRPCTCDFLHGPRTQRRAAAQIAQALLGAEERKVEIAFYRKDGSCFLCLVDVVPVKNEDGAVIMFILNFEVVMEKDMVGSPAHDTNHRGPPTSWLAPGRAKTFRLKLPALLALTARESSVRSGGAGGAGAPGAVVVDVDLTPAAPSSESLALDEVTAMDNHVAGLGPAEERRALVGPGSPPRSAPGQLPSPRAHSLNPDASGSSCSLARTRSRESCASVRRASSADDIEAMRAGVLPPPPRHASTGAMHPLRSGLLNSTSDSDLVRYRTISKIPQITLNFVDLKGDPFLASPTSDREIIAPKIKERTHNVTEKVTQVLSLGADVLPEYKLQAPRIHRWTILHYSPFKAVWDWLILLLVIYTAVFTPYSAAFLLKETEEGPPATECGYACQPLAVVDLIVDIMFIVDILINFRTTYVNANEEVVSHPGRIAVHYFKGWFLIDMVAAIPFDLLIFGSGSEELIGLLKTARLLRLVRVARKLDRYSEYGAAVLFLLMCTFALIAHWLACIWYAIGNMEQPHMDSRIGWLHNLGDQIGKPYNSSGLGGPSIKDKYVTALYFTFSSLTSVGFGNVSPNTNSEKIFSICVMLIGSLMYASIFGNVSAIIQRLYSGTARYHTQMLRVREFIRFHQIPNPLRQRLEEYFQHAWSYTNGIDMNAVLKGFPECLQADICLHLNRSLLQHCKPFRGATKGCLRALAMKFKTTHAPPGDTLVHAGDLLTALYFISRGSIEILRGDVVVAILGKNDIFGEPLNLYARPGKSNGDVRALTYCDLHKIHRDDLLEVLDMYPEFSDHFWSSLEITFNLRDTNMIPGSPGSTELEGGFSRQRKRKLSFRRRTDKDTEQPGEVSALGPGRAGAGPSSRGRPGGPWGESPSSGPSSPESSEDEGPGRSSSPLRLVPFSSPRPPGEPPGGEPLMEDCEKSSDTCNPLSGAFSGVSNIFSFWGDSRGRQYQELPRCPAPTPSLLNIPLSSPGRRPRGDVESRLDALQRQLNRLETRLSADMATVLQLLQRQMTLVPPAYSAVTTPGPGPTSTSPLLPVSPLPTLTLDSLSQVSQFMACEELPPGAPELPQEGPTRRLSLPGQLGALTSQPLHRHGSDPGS

- concentration at 1 h [3]: 141 ng/mL
- concentration at 1 h [4]: 638 ng/g
- concentration at 6 h [5]: 14.4 ng/g
- IC50 (VCaP): 0.0046 µM
- IC50 (Cytochrome P450 1A2): > 10 µM
- concentration at 1 h [6]: 30.8 ng/g
- IC50 (Cytochrome P450 2B6): > 10 µM
- half-life [7]: > 2 h
- concentration at 24 h [8]: 5.6 ng/mL
- half-life [9]: 0.8 h
- bioavailability [11]: 60%
- concentration at 1 h [12]: 937 ng/mL
- half-life [13]: 0.8 h
- concentration at 1 h [15]: 155 ng/g
- half-life [18]: 3.1 h
- half-life [20]: 1.3 h
- concentration at 6 h [22]: 738 ng/mL
- IC50 (Cytochrome P450 2D6): > 10 µM
- concentration at 6 h [23]: 41.4 ng/mL
- Vdss [24]: 4.9 L/kg
SMILES: CC(=O)N1CCc2c(c(N3CCCc4cc(-c5cnn(C)c5)c(C(F)F)cc43)nn2[C@H]2CC[C@H](CN3Cc4cc5c(cc4C3)C(=O)N(C3CCC(=O)NC3=O)C5=O)CC2)C1 (stereo partly drawn)
- IC50 [1]: > 30 µM
- Activity [2]: Non-Toxic
- Activity [10]: Non-Toxic
- Activity [14]: Non-Toxic
- inhibition in vivo at 3 mg/kg (CWR22R [16]): 83%
- inhibition in vivo at 1 mg/kg (CWR22R [17]): 54%
- Activity [19]: < 5%
- Activity [21]: Non-Toxic
